From patent US20030109675A1 (priority 2001, published 2003)
Values joined by “and” are separate entries in the source; they are usually repeats but may differ in a detail not shown here. Equal entries are not always repeated.

Columns and labels:
DegP [1] = biological target: T1, DegP (Escherichia coli, UniProt P0C0V0); conditions: for cleavage of fluorescence-quench peptide by DegP: 8 μM (SPCJ-12) or 10 μM peptide, 25 mM HEPES, 5 mM CaCl2, 45° C.
DegP [2] = biological target: T1, DegP; conditions: 7-mer and 12-mer Abz-tagged cellulose-bound peptides, 0.28 mg/ml DegP, 5 mM MgCl2, up to 28 hours
DegP protease = DegP protease (Escherichia coli, UniProt P0C0V0); conditions: for effect of divalent cation on DegP cleavage of PapA-6H4A-rcm: 5 mM
DegP [3] = biological target: T1, DegP; conditions: cited from earlier work
DegP [4] = biological target: T1, DegP; conditions: scaled-up (5 ml) cleavage reaction, MALDI-TOF MS of products
[5] = biological target: SPCJ-14 - Abz-[…]-DAP(Dnp)-NH2

Abz-HYTASSK-DAP(Dnp)-NH2 [SPCJ-14]
cleavage of fluorescence-quench peptide by DegP (DegP [1]; 5 μg DegP): lack of cleavage
inhibition of DegP cleavage of SPCJ-13 (DegP [1]; 10-fold molar excess (100 μM vs 10 μM SPCJ-13), 30 minutes pre-incubation with 5 μg DegP, then 60 minutes): blocked cleavage of SPCJ-13

TLKDGENVLHYT
cleavage of PapA library peptide by DegP in solid-phase scan (DegP [2]): cleaved by DegP

[Cl-].[Cl-].[Mg+2] [MgCl2, reference compound]
input PapA-6H4A-rcm cleaved by DegP in presence of divalent cation (DegP protease; 5 mM cation, 20 μg DegP, 20 μg substrate, 4 hours at 45° C.): ~50%

NGHSDEL
cleavage of PapA library peptide by DegP in solid-phase scan (DegP [2]): cleaved by DegP

[Cl][Mn][Cl] [MnCl2, reference compound]
effect of divalent cation on DegP cleavage of PapA-6H4A-rcm (DegP protease): stimulated DegP cleavage

DGENVLH
cleavage of PapA library peptide by DegP in solid-phase scan (DegP [2]): cleaved by DegP

O=S(=O)(F)Cc1ccccc1 [phenylmethylsulfonylfluoride]
inhibition of DegP activity (DegP [3]): not inhibited

[Ca+2].[Cl-].[Cl-] [CaCl2, reference compound]
effect of divalent cation on DegP cleavage of PapA-6H4A-rcm (DegP protease): stimulated DegP cleavage

Abz-HYTAVVK-DAP(Dnp)-NH2 [SPCJ-13]
cleavage of fluorescence-quench peptide by DegP (DegP [1]; 5 μg DegP): cleaved SPCJ-13 in a time-dependent fashion
DegP cleavage site in substrate peptide (DegP [4]): cleavage between the paired valine residues

LDIELVNCDITA
cleavage of PapA library peptide by DegP in solid-phase scan (DegP [2]): cleaved by DegP

ELVNCDI
cleavage of PapA library peptide by DegP in solid-phase scan (DegP [2]): cleaved by DegP

FTGPIVNGHSDE
cleavage of PapA library peptide by DegP in solid-phase scan (DegP [2]): cleaved by DegP

Abz-HYTAVVKKSSAV-DAP(Dnp)-NH2 [SPCJ-12]
cleavage of fluorescence-quench peptide by DegP (DegP [1]; 5 μg DegP): cleaved SPCJ-12 in a time-dependent fashion
DegP cleavage site in substrate peptide (DegP [4]): cleaved between the paired valine residues

HYTAVVKKSSAV
cleavage of PapA library peptide by DegP in solid-phase scan (DegP [2]): cleaved by DegP

HYTAVVK
cleavage of PapA library peptide by DegP in solid-phase scan (DegP [2]): cleaved by DegP

NVLHYTA
cleavage of PapA library peptide by DegP in solid-phase scan (DegP [2]): cleaved by DegP

KSMCMKLSFS [SPCJ-1]
PapA-6H4A-rcm cleaved by DegP in presence of activating peptide, 60 minutes (DegP protease; 200 μM peptide, 5 μg DegP, 40 μg substrate, 5 mM MgCl2, 45° C., 60 minutes): 50% and > 50%
PapA-6H4A-rcm cleaved by DegP in presence of activating peptide, four hours (DegP protease; 200 μM peptide, 5 μg DegP, 40 μg substrate, 5 mM MgCl2, 45° C., four hours): ~90%
effect of peptide on DegP cleavage of SPCJ-13 (DegP [1]; 200 μM peptide added at onset of incubation, 5 μg DegP): enhanced cleavage of SPCJ-13

KLAFTGPIVNGH
cleavage of PapA library peptide by DegP in solid-phase scan (DegP [2]): cleaved by DegP

B1: DegP protease (protein)
chain: AETSSATTAQQMPSLAPMLEKVMPSVVSINVEGSTTVNTPRMPRNFQQFFGDDSPFCQEGSPFQSSPFCQGGQGGNGGGQQQKFMALGSGVIIDADKGYVVTNNHVVDNATVIKVQLSDGRKFDAKMVGKDPRSDIALIQIQNPKNLTAIKMADSDALRVGDYTVAIGNPFGLGETVTSGIVSALGRSGLNAENYENFIQTDAAINRGNSGGALVNLNGELIGINTAILAPDGGNIGIGFAIPSNMVKNLTSQMVEYGQVKRGELGIMGTELNSELAKAMKVDAQRGAFVSQVLPNSSAAKAGIKAGDVITSLNGKPISSFAALRAQVGTMPVGSKLTLGLLRDGKQVNVNLELQQSSQNQVDSSSIFNGIEGAEMSNKGKDQGVVVNNVKTGTPAAQIGLKKGDVIIGANQQAVKNIAELRKVLDSKPSVLALNIQRGDSTIYLLMQ
cleavage in the fluorescent-quench peptide assay [5]: SPCJ-14 was not cleaved
